Test results: the supplement of paper PMC11451515

What was measured:
Assay in all cases: AUC of viability dose-response curve (% viability x log10 dose units); higher = less sensitive
Conditions in all cases: 48 h
NOMO1 = tested on: NOMO1
Method in brief: (§1)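 Viability of medium-adapted leukemia cells was measured by CellTiter-Glo One luminescence after 48 h at 37°C with library compounds in DMSO. Doses were 11 threefold steps from 47 μM to 0.79 nM, in 1536-well plates at 500 or 1000 cells/well. Signals were normalised per plate to DMSO and cell-free wells and fitted with a four-parameter log-logistic model on log10 dose. Area under the curve was integrated by trapezoidal rule, with curves exceeding full viability scaled and failed quality-control curves removed.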

P12-Ichikawa = tested on: P12-Ichikawa
Method in brief: as §1

SEM cells = tested on: SEM cells
Method in brief: as §1

[1] = RPMI 5 mM glucose + 10% dialyzed FBS

Row | Compound | AUC of viability dose-response curve (NOMO1; HPLM + 10% dialyzed FBS) | AUC of viability dose-response curve (NOMO1; RPMI 5 mM glucose + 10% FBS) | AUC of viability dose-response curve (NOMO1; [1]) | AUC of viability dose-response curve (P12-Ichikawa; HPLM + 10% dialyzed FBS) | AUC of viability dose-response curve (P12-Ichikawa; RPMI 5 mM glucose + 10% FBS) | AUC of viability dose-response curve (P12-Ichikawa; [1]) | AUC of viability dose-response curve (SEM cells; HPLM + 10% dialyzed FBS) | AUC of viability dose-response curve (SEM cells; RPMI 5 mM glucose + 10% FBS) | AUC of viability dose-response curve (SEM cells; [1])
1 | C/C(=C\c1csc(C)n1)[C@@H]1C[C@@H]2O[C@]2(C)CCC[C@H](C)[C@H](O)[C@@H](C)C(=O)C(C)(C)[C@@H](O)CC(=O)O1 | 138 | 82 | 114 | 139 | 120 | 184 | 104 | 74.6 | 95.4
2 | C[C@@H](NCc1cc2ccccc2[nH]1)c1cccc2ccccc12 | 443 | 428 | 449 | 441 | 434 | 414 | 409 | 406 | 413
3 | Cc1ccc(NC(=O)c2cccc(N(C)C)c2)cc1NC(=O)c1ccc(O)cc1 | 472 | 464 | 470 | 456 | 461 | 446 | 457 | 474 | 450
4 | O=C(C1CC1)N1CC[C@@H](Cn2c(-c3ccc(-c4ccc5occc5c4)cc3)nc3cnccc32)C1 | 469 | 456 | 468 | 461 | 470 | 469 | 457 | 465 | 462
5 | CC1(C)Cc2c(sc(NC(=S)NC(=O)c3ccccc3)c2C(=O)O)CO1 | 466 | 456 | 458 | 469 | 476 | 470 | 452 | 474 | 427
6 | CN1/C=C(\N=C(NC2=CC=C(C=C2)C(=O)N3CCOCC3)/C1=O)/C4=C(C)C(=CC=C4)NC(=O)C5=CC=C(C=C5)C(C)(C)C | 466 | 430 | 454 | 458 | 466 | 467 | 468 | 443 | 458
7 | CC(Cc1ccc(O)c(O)c1)(NN)C(=O)O (stereo not drawn) | 475 | 453 | 442 | 448 | 467 | 465 | 469 | 466 | 468
8 | COC/1=C/[C@@H]2[C@@H]3CC4=C(C(=C(OC)C=C4)O)[C@]2(CCN3C)CC1=O | 476 | 459 | 471 | 473 | 467 | 466 | 472 | 469 | 464
9 | CC(C)C(=O)Nc1ncc(-c2cc(C(F)F)nn2-c2c(Cl)cccc2Cl)s1 | 468 | 472 | 460 | 465 | 460 | 463 | 458 | 465 | 463
10 | O=C1CCC[C@@H]2[C@H]3CCC[N+]4([O-])CCC[C@@H](CN12)[C@@H]34 (stereo partly drawn) | 364 | 374 | 369 | 463 | 435 | 422 | 373 | 406 | 398
11 | CN[C@H]1[C@H](O[C@@H]2[C@H](O[C@@H]3[C@@H](O)[C@@H](O)[C@@H](NC(=N)N)[C@@H](O)[C@H]3NC(=N)N)O[C@H](C)[C@@]2(O)C=O)O[C@@H](CO)[C@@H](O)[C@H]1O | 412 | 456 | 449 | 452 | 450 | 424 | 386 | 432 | 455
12 | CN1CC/C(CC1)=C3\c4ccccc4CC(=O)c2sccc23 | 462 | 463 | 463 | 472 | 467 | 470 | 460 | 472 | 473
13 | CCc1c(O)cc(O)c(C(=O)c2ccc(OCCN3CCOCC3)c(OC)c2)c1CC(=O)N(CCOC)CCOC | 359 | 367 | 375 | 399 | 384 | 383 | 383 | 347 | 355
14 | O=[S+]([O-])(CCSSCC[S+](=O)([O-])[O][Na])[O][Na] | 432 | 428 | 450 | 461 | 451 | 472 | 423 | 457 | 438
15 | CN1C2=CC(=O)/C(=N/NC(N)=O)C=C2CC1S(=O)(=O)[O-].[Na+] (stereo not drawn) | 454 | 462 | 461 | 475 | 472 | 459 | 455 | 449 | 447
16 | N#CC1(c2ccc(NC(=O)c3cccnc3NCc3ccncc3)cc2)CCCC1 | 442 | 475 | 463 | 437 | 461 | 435 | 442 | 431 | 412
17 | COc1ccccc1OCCNCC(O)COc1cccc2[nH]c3ccccc3c12 (stereo not drawn) | 476 | 465 | 474 | 461 | 468 | 468 | 467 | 463 | 467
18 | Cn1cc(-c2cnn3c(N)c(Br)c([C@@H]4CCCNC4)nc23)cn1 | 352 | 322 | 314 | 358 | 342 | 339 | 300 | 344 | 289
19 | C[N]1N=CC2=C1C=C(C(=C2)OC3=CC=C(NC(=O)\C4=C\C=C(\C)N(C4=O)C5=CC=C(F)C=C5)C=C3F)C6=C[NH]N=C6 | 401 | 410 | 413 | 396 | 397 | 404 | 268 | 266 | 255
20 | CCOc1cc(/C=C2/C(=O)N(c3ccccc3)N=C2C)cc(Cl)c1OCC(=O)OC | 432 | 413 | 425 | 424 | 408 | 418 | 386 | 422 | 383
21 | O=C(O)CSCC(=O)NC1CCSC1=O (stereo not drawn) | 471 | 476 | 476 | 466 | 469 | 463 | 451 | 456 | 464
22 | C[C@H]1C[C@H]2[C@@H]3CCC4=CC(=O)C=C[C@]4(C)[C@H]3C(=O)C[C@]2(C)[C@@]1(O)C(=O)CO | 442 | 407 | 394 | 443 | 454 | 402 | 390 | 366 | 401
23 | C=CCc1cc(OC)c(O)c(C(=O)NCCO)c1 | 449 | 462 | 446 | 457 | 460 | 466 | 448 | 442 | 454
24 | Cc1cc(-c2nnc3n2CCCCC3)c(C)n1-c1ccccc1 | 464 | 473 | 470 | 464 | 462 | 470 | 470 | 424 | 472

Row | Compound | AUC of viability dose-response curve (NOMO1; HPLM + 10% dialyzed FBS) | AUC of viability dose-response curve (NOMO1; RPMI 5 mM glucose + 10% FBS) | AUC of viability dose-response curve (NOMO1; [1]) | AUC of viability dose-response curve (P12-Ichikawa; HPLM + 10% dialyzed FBS) | AUC of viability dose-response curve (P12-Ichikawa; RPMI 5 mM glucose + 10% FBS) | AUC of viability dose-response curve (P12-Ichikawa; [1]) | AUC of viability dose-response curve (SEM cells; HPLM + 10% dialyzed FBS) | AUC of viability dose-response curve (SEM cells; RPMI 5 mM glucose + 10% FBS) | AUC of viability dose-response curve (SEM cells; [1])
25 | COC1=CC(=CC=C1)C2=CC=C(NC(=O)/C3=C(/CCC3)C(O)=O)C(=C2)F | 428 | 469 | 457 | 444 | 436 | 431 | 465 | 461 | 447
26 | C[C@]12CC[C@@H]3c4ccc(O)cc4CC[C@H]3[C@@H]1CC[C@@H]2O | 435 | 453 | 450 | 446 | 455 | 440 | 441 | 434 | 431
27 | CC(=O)Oc1cc2c(s1)CCN(C(C(=O)C1CC1)c1ccccc1F)C2.Cl (stereo not drawn) | 386 | 396 | 396 | 468 | 455 | 452 | 466 | 431 | 453
28 | CN(c1nccc(=O)[nH]1)C1CCN(c2nc3ccccc3n2Cc2ccc(F)cc2)CC1 | 466 | 459 | 471 | 466 | 460 | 462 | 474 | 424 | 473
29 | O=P1(N(CCCl)CCCl)NCCCO1 (stereo not drawn) | 416 | 436 | 430 | 409 | 424 | 448 | 413 | 405 | 406
30 | CC(C)(C)Cn1c(N)nc2ccc(-c3[nH]c(C(C)(C)C)nc3-c3ccc(F)cc3)nc21 | 367 | 392 | 405 | 422 | 414 | 401 | 407 | 347 | 412
31 | Cn1c(=O)c2[nH]cnc2n(C)c1=O | 464 | 454 | 457 | 473 | 463 | 468 | 474 | 454 | 477
32 | CCCOc1ccc2[nH]c(NC(=O)OC)nc2c1 | 286 | 259 | 273 | 226 | 217 | 257 | 240 | 169 | 199
33 | CN(C)/[N+]([O-])=N/Oc1cc(ON[N+](=O)N2CCN(C(=O)c3cc(Cc4n[nH]c(=O)c5ccccc45)ccc3F)CC2)c([N+](=O)[O-])cc1[N+](=O)[O-] | 438 | 460 | 441 | 467 | 469 | 466 | 444 | 446 | 448
34 | Nc1nc(Nc2ccc([S+](N)(=O)[O-])cc2)nn1C(=O)c1c(F)cccc1F | 437 | 410 | 402 | 455 | 435 | 439 | 397 | 407 | 399
35 | OC1=CC2=C(C(=O)\C=C(/O2)C3=CC=CC=C3)C(=C1O)O | 441 | 431 | 441 | 391 | 413 | 418 | 407 | 379 | 402
36 | COc1nccc(-c2c(-c3ccc(F)cc3)ncn2C2CCC(O)CC2)n1 (stereo not drawn) | 463 | 458 | 465 | 443 | 465 | 462 | 459 | 320 | 438
37 | CCCC(CCC)C(=O)[O-] | 448 | 469 | 453 | 468 | 472 | 476 | 461 | 442 | 468
38 | C[N+](C)(C)CC(=O)O.[Cl-] | 432 | 398 | 416 | 442 | 446 | 411 | 373 | 374 | 391
39 | CC1=CC=C2\N=C/3N(CC[C@@]3(O)C(=O)C2=C1)C4=CC=CC=C4 | 452 | 403 | 425 | 442 | 420 | 400 | 431 | 438 | 413
40 | CCC[C@@H](C=O)NC(=O)[C@H](CC(C)C)NC(=O)[C@H](CC(C)C)NC(=O)OCc1ccccc1 | 348 | 334 | 359 | 366 | 359 | 367 | 356 | 296 | 337
41 | Oc1cc2c(cc1O)C1c3ccc(O)c(O)c3OCC1(O)C2 (stereo not drawn) | 456 | 464 | 459 | 461 | 449 | 469 | 430 | 441 | 447
42 | CCOC(CN1C(=O)[C@](CC(=O)Nc2ccc(C)cc2)(NC(=O)Nc2ccc(C)cc2)c2ccccc21)OCC | 448 | 460 | 458 | 458 | 461 | 460 | 447 | 437 | 466
43 | COc1cccc2c(NCc3ccccc3)nc(-n3c(N)nc4ccccc43)nc12 | 453 | 457 | 455 | 428 | 435 | 439 | 369 | 367 | 379
44 | CCc1cccc2c3c([nH]c12)C(CC)(CC(=O)O)OCC3 (stereo not drawn) | 452 | 441 | 427 | 466 | 448 | 465 | 454 | 409 | 448
45 | CC[C@H](NC(C)C)[C@H](O)c1ccc(O)c2[nH]c(=O)ccc12 | 470 | 447 | 463 | 451 | 462 | 456 | 442 | 472 | 474
46 | O=C(O)CCNc1cc(N2CCc3ccccc3CC2)nc(-c2ccccn2)n1 | 448 | 456 | 452 | 463 | 454 | 459 | 463 | 434 | 463
47 | CCNC(=O)Nc1ccc(-c2nc3c(c(N4CCOC[C@@H]4C)n2)CCN(C2COC2)C3)cc1 | 352 | 407 | 380 | 370 | 358 | 356 | 366 | 353 | 378
